Data reported in ChEMBL document CHEMBL3734751, “Discovery of novel, potent and low-toxicity angiotensin II receptor type 1 (AT1) blockers: Design, synthesis and biological evaluation of 6-substituted aminocarbonyl benzimidazoles with a chiral center” (Eur J Med Chem, 2015).
Changes are numbered by the printed parent chain. Calls of active or inactive are those of the source. The calls are words filed in the database; no cut-off is given here.

How the values were obtained:
[1] = biological target: T1, Type-1 angiotensin II receptor (Homo sapiens, UniProt P30556); experiment: Displacement of [125I]Sar1Ile8-Ang2 from human AT1 receptor expressed in CHO-K1 cell membranes after 180 mins
T1 sequence (P30556 whole entry): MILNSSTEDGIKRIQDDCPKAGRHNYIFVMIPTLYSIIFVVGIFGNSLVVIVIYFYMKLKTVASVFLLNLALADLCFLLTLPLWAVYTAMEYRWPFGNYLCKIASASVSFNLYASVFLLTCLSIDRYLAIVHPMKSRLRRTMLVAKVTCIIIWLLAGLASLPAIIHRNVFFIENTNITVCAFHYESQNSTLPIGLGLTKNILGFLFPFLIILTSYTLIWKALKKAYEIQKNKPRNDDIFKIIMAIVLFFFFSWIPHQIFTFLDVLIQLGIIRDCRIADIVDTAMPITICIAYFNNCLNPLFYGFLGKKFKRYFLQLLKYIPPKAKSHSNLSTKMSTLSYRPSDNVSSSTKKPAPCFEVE

[2] = biological target: T2, Type-1 angiotensin II receptor (Oryctolagus cuniculus, UniProt P34976); experiment: Antagonist activity against AT1 receptor in Japanese White rabbit aortic strips assessed as reduction in angiotension-2-induced contractile response after 60 mins by Schild's plot analysis; conditions: read-out: pA2 (converted)
T2 sequence (P34976 whole entry): T1 sequence (P30556 whole entry) with I2M, V49A, I254V, I270V, R272H, R311K, T349S, A353V

Rattus norvegicus [3] = experiment: Antihypertensive activity in spontaneously hypertensive rat assessed as mean blood pressure at 30 mg/kg, po by tail-cuff plethysmography; format: functional, organism-based
Rattus norvegicus [4] = experiment: Antihypertensive activity in spontaneously hypertensive rat assessed as decrease in mean blood pressure at 10 mg/kg, po within 24 hrs by tail-cuff plethysmography; format: functional, organism-based
[5] = Toxicity in Kunming mouse at 1.8 g/kg, po assessed as mortality after 2 weeks; format: organism-based; conditions: in vivo, 1800 mg/kg
[6] = Toxicity in Kunming mouse at 2 g/kg, po assessed as mortality after 2 weeks; format: organism-based; conditions: in vivo, 2000 mg/kg
[7] = Toxicity in orally dosed Kunming mouse assessed as mortality after 2 weeks; format: organism-based; conditions: in vivo, po
[8] = Toxicity in Kunming mouse at 1.3 g/kg, po assessed as mortality after 2 weeks; format: organism-based; conditions: in vivo, 1300 mg/kg
[9] = Toxicity in Kunming mouse at 1.5 g/kg, po assessed as mortality after 2 weeks; format: organism-based; conditions: in vivo, 1500 mg/kg

| Structure (SMILES) | IC50 [1] | Kb [2] | other results |
| --- | --- | --- | --- |
| CCCc1nc2c(C)cc(C(=S)NC[C@H](C)c3ccccc3)cc2n1Cc1ccc(-c2ccccc2-c2nnn[nH]2)cc1 | 366 nM |  |  |
| CCCc1nc2c(C)cc(C(=O)N[C@H](CO)c3ccccc3)cc2n1Cc1ccc(-c2ccccc2C(=O)O)cc1 | 214 nM | 3.98 nM |  |
| CCCc1nc2c(C)cc(C(=O)NCC(C)c3ccccc3)cc2n1Cc1ccc(-c2ccccc2-c2nnn[nH]2)cc1 (racemic) | 16.7 nM | 3.09 nM |  |
| CCCc1nc2c(C)cc(C(=O)N[C@H](CO)c3ccccc3)cc2n1Cc1ccc(-c2ccccc2-c2nnn[nH]2)cc1 | 129 nM | 7.76 nM |  |
| CCSc1nc2c(C)cc(C(=O)NC[C@H](C)c3ccccc3)cc2n1Cc1ccc(-c2ccccc2-c2nnn[nH]2)cc1 | 503 nM |  |  |
| CCCCc1nc(Cl)c(CO)n1Cc1ccc(-c2ccccc2-c2nnn[nH]2)cc1 |  |  | Activity (Rattus norvegicus [3]): Active |
| CSc1nc2c(C)cc(C(=O)NC[C@H](C)c3ccccc3)cc2n1Cc1ccc(-c2ccccc2C(=O)O)cc1 | 609 nM |  |  |
| CCCc1nc2c(C)cc(C(=O)N[C@H](COC)c3ccccc3)cc2n1Cc1ccc(-c2ccccc2-c2nnn[nH]2)cc1 | 157 nM | 3.16 nM |  |
| CCCc1nc2c(C)cc(C(=O)N[C@@H](CO)c3ccccc3)cc2n1Cc1ccc(-c2ccccc2C(=O)O)cc1 | 496 nM | 7.41 nM |  |
| CCSc1nc2c(C)cc(C(=O)NC[C@@H](C)c3ccccc3)cc2n1Cc1ccc(-c2ccccc2C(=O)O)cc1 | 788 nM |  |  |
| CCCc1nc2c(C)cc(C(=O)N[C@@H](COC)c3ccccc3)cc2n1Cc1ccc(-c2ccccc2-c2nnn[nH]2)cc1 | 38.9 nM | 6.92 nM |  |
| CCCCc1nc(Cl)c(CO)n1Cc1ccc(-c2ccccc2-c2nn[nH]n2)cc1 [LOSARTAN] |  |  | mortality at 336 h [5]: 80%; mortality at 336 h [6]: 90%; LD50 at 336 h [7]: 1570 mg/kg; mortality at 336 h [8]: 10%; mortality at 336 h [9]: 30% |
| CCSc1nc2c(C)cc(C(=O)NC[C@H](C)c3ccccc3)cc2n1Cc1ccc(-c2ccccc2C(=O)O)cc1 | 487 nM |  |  |
| CCCc1nc2c(C)cc(C(=S)NC[C@H](C)c3ccccc3)cc2n1Cc1ccc(-c2ccccc2C(=O)O)cc1 | 1120 nM |  |  |
| CCCc1nc2c(C)cc(C(=O)NC[C@@H](C)c3ccccc3)cc2n1Cc1ccc(-c2ccccc2-c2nnn[nH]2)cc1 | 5 nM | 26.3 nM |  |
| CCCc1nc2c(C)cc(C(=S)NC[C@@H](C)c3ccccc3)cc2n1Cc1ccc(-c2ccccc2C(=O)O)cc1 | 738 nM |  |  |
| CCCc1nc2c(C)cc(C(=S)NC[C@@H](C)c3ccccc3)cc2n1Cc1ccc(-c2ccccc2-c2nnn[nH]2)cc1 | 343 nM |  |  |
| CSc1nc2c(C)cc(C(=O)NC[C@@H](C)c3ccccc3)cc2n1Cc1ccc(-c2ccccc2-c2nnn[nH]2)cc1 | 699 nM |  |  |
| CSc1nc2c(C)cc(C(=O)NC[C@H](C)c3ccccc3)cc2n1Cc1ccc(-c2ccccc2-c2nnn[nH]2)cc1 | 671 nM |  |  |
| CSc1nc2c(C)cc(C(=O)NC[C@@H](C)c3ccccc3)cc2n1Cc1ccc(-c2ccccc2C(=O)O)cc1 | 1370 nM |  |  |
| CCCc1nc2c(C)cc(C(=O)N[C@@H](CO)c3ccccc3)cc2n1Cc1ccc(-c2ccccc2-c2nnn[nH]2)cc1 | 293 nM | 15.8 nM |  |
| CCSc1nc2c(C)cc(C(=O)NC[C@@H](C)c3ccccc3)cc2n1Cc1ccc(-c2ccccc2-c2nnn[nH]2)cc1 | 622 nM |  |  |

Second part, led by results:

| IC50 [1] | Kb [2] | Structure (SMILES) | other results |
| --- | --- | --- | --- |
| 3.5 nM |  | CCOc1nc2c(C)cc(C(=O)NC[C@H](C)c3ccccc3)cc2n1Cc1ccc(-c2ccccc2-c2nnn[nH]2)cc1 |  |
| 57.4 nM |  | CCOc1nc2c(C)cc(C(=O)NC[C@@H](C)c3ccccc3)cc2n1Cc1ccc(-c2ccccc2C(=O)O)cc1 |  |
| 61.2 nM |  | CCCSc1nc2c(C)cc(C(=O)NC[C@H](C)c3ccccc3)cc2n1Cc1ccc(-c2ccccc2C(=O)O)cc1 |  |
| 40.4 nM | 1.86 nM | CCCc1nc2c(C)cc(C(=O)NC[C@@H](C)c3ccccc3)cc2n1Cc1ccc(-c2ccccc2C(=O)O)cc1 |  |
| 6.3 nM |  | CCOc1nc2c(C)cc(C(=O)NC[C@@H](C)c3ccccc3)cc2n1Cc1ccc(-c2ccccc2-c2nnn[nH]2)cc1 |  |
| 23 nM | 5.62 nM | CCCc1nc2c(C)cc(C(=O)NC[C@H](C)c3ccccc3)cc2n1Cc1ccc(-c2ccccc2C(=O)O)cc1 |  |
| 23.1 nM | 8.13 nM | CCCc1nc2c(C)cc(C(=O)NCCc3ccccc3)cc2n1Cc1ccc(-c2ccccc2C(=O)O)cc1 |  |
| 57.9 nM | 3.63 nM | CCCc1nc2c(C)cc(C(=O)N[C@H](COC)c3ccccc3)cc2n1Cc1ccc(-c2ccccc2C(=O)O)cc1 |  |
| 70 nM | 3.16 nM | CCCc1nc2c(C)cc(C(=O)N[C@@H](COC)c3ccccc3)cc2n1Cc1ccc(-c2ccccc2C(=O)O)cc1 |  |
| 104 nM |  | CCCc1nc2c(C)cc(C(=O)NC[C@@H](O)c3ccccc3)cc2n1Cc1ccc(-c2ccccc2C(=O)O)cc1 |  |
| 19.5 nM |  | CCCc1nc2c(C)cc(C(=O)N[C@@H](C)c3ccccc3)cc2n1Cc1ccc(-c2ccccc2C(=O)O)cc1 | Activity (Rattus norvegicus [4]): inactive |
| 1.4 nM |  | CCCSc1nc2c(C)cc(C(=O)NC[C@H](C)c3ccccc3)cc2n1Cc1ccc(-c2ccccc2-c2nnn[nH]2)cc1 | Activity (Rattus norvegicus [4]): inactive |
| 93.9 nM |  | CCCc1nc2c(C)cc(C(=O)NC[C@H](O)c3ccccc3)cc2n1Cc1ccc(-c2ccccc2C(=O)O)cc1 |  |
| 87.2 nM |  | CCCSc1nc2c(C)cc(C(=O)NC[C@@H](C)c3ccccc3)cc2n1Cc1ccc(-c2ccccc2C(=O)O)cc1 |  |
| 90.5 nM |  | CCCc1nc2c(C)cc(C(=O)N[C@H](C)c3ccccc3)cc2n1Cc1ccc(-c2ccccc2C(=O)O)cc1 |  |
| 161 nM |  | CCCc1nc2c(C)cc(C(=O)NC[C@H](O)c3ccccc3)cc2n1Cc1ccc(-c2ccccc2-c2nnn[nH]2)cc1 |  |
| 2.7 nM |  | CCCSc1nc2c(C)cc(C(=O)NC[C@@H](C)c3ccccc3)cc2n1Cc1ccc(-c2ccccc2-c2nnn[nH]2)cc1 | Activity (Rattus norvegicus [4]): inactive |
| 106 nM |  | CCCc1nc2c(C)cc(C(=O)NC[C@@H](O)c3ccccc3)cc2n1Cc1ccc(-c2ccccc2-c2nnn[nH]2)cc1 |  |
| 7.3 nM |  | CCOc1nc2c(C)cc(C(=O)NC[C@H](C)c3ccccc3)cc2n1Cc1ccc(-c2ccccc2C(=O)O)cc1 |  |
